One block for each molecule: values may come before it.
What was measured:
GPR17 [1] = target: T1, GPR17 (Homo sapiens, UniProt Q13304); experiment: Calcium mobilization functional assay (GPR17 Ca2+ assay); assay type: cell-based; set-up: host or cells: Flp-In T-REx CHO; settings: CHO hGPR17 cells, inhibition of 50 nM MDL29,951, Calcium 5 dye, FLIPR; read-out: Ca2+ assay pIC50 (converted)
Summary of the method: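 pIC50 values were fitted with a 4-parameter logistic curve. They reflect test-compound inhibition of cytosolic Ca2+ release evoked by 50 nM MDL29,951, tracked as Calcium 5 fluorescence at room temperature. Cells were CHO Flp-In T-REx stably carrying human GPR17, induced with doxycycline 1 μg/mL for 16-20 h.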
Target sequence in this assay (Q13304 whole entry): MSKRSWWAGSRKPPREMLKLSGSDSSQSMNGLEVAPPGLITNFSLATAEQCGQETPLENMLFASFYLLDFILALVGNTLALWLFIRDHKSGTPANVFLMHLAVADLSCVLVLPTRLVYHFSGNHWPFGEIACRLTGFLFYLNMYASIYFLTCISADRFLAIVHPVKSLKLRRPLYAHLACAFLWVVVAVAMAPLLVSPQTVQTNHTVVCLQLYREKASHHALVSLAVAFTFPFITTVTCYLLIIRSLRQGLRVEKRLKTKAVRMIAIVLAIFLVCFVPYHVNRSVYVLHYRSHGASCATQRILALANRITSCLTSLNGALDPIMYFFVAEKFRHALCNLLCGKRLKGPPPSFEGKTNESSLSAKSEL

GPR17 [2] = target: T1, GPR17; experiment: cAMP accumulation functional assay (HTRF, Schild analysis); assay type: cell-based; set-up: host or cells: Flp-In T-REx CHO; settings: CHO hGPR17 cells, Schild analysis vs MDL29,951, 5 μM forskolin, read-out: cAMP assay pA2 (converted)
Summary of the method: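 Antagonist affinity (pA2) came from Schild plots of dose ratios, based on MDL29,951 concentration-response curves fitted by 4-parameter logistic. The read-out was HTRF cAMP in 5,000 doxycycline-induced CHO hGPR17 cells per well, with 30 min compound preincubation and 60 min stimulation, at room temperature in pH 7.4 buffer.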
Target sequence in this assay (Q13304 whole entry): as above

[3] = tested on: primary oligodendrocyte progenitor cells (OPCs); experiment: MBP fiber plates oligodendrocyte maturation/myelination assay; assay type: cell-based, rat; settings: OPCs on aligned fiber plates, 1 μM test compound, 6 days, FIG. 2
Experimental: Primary oligodendrocyte progenitor cells (OPCs) were isolated from the forebrains of Wistar rat pups at postnatal day 0 to 2. Cerebra were mechanically dissociated with a syringe and two different hollow needles (first 1.2×40 and then 0.60×30). Clump-free cell suspension was filtered through a 70-μm cell strainer and plated into poly-D-lysine-coated 75-cm^2 culture flasks in DMEM supplemented with 10% (v/v) heat-inactivated fetal calf serum, penicillin (100 units/mL), and streptomycin (0.1 mg/mL) with medium exchanged every second day. After 8 to 11 days at 37° C. in a humidified atmosphere of 5% CO2, mixed cultures were shaken at 240 rpm for 14-24 h to detach OPCs from astrocytes and microglia. To further enrich for OPCs, the suspension was plated onto uncoated Petri dishes for 45 min. Then, OPCs were seeded into poly-L-ornithine-coated plates and maintained at 37° C. in a humidified atmosphere of 5% CO2 in proliferating Neurobasal medium supplemented with 2% (v/v) B27, 2 mM GlutaMAX, 100 units/mL penicillin, 0.1 mg/mL streptomycin, 10 ng/mL PDGF-AA, and 10 ng/mL basic FGF changing the medium every second day.
The effects of negative modulators of GPR17 on primary oligodendrocytes maturation/myelination can be assessed in vitro by immunoassays using antibodies directed against Myelin Basic Protein (MBP), as marker for mature oligodendrocytes. […]

GPR17 [4] = target: T1, GPR17; settings: activating ligands for GPR17; cited from earlier work
Target sequence in this assay (Q13304 whole entry, species assumed): as the sequence (Q13304 whole entry) above

[5] = cited from earlier work
[6] = in vivo; cited from earlier work
[7] = exposure to air and light; cited from earlier work
[8] = tested on: cuprizone-induced demyelination; experiment: Acute cuprizone mice model (PLP immunohistochemistry in corpus callosum); assay type: in vivo, C57BI/6 J mice; settings: oral, daily, 6 mg/kg and 20 mg/kg, vs vehicle p<0.01, FIG. 5
[9] = Determination of plasma and brain exposure (brain/plasma ratio, brain Kp); assay type: in vivo; settings: male Sprague Dawley rats, 3 mg/kg intraperitoneal, approximately 45 minutes after administration, FIG. 3
Experimental: Male Sprague Dawley rats (n=2 per time point) were used to determine the brain penetration of the compounds at 15, 45 and 120 min after 3 mg/kg of intraperitoneal administration.
At each time point, following anesthesia (inhalation of isoflurane) and blood collection (1 mL cardiac puncture into tubes containing K2EDTA) rats were exsanguinated and the brain perfused via the left ventricle (50 mL of heparinized NaCl 0.9% (0.15 UI/mL) flow 50 mL/min).
Brain was collected and weighed. Plasma was obtained from blood samples by centrifugation (3000 g for 15 min at 4° C.). Brain and plasma samples were frozen until time of analysis.
At the time of analysis, brain samples were homogenized in plasma (1:4 v:v) and together with plasma samples, following protein precipitation, were analyzed by HPLC/MS-MS analysis.

- IC50 (GPR17 [1]): < 3.16 nM
- Kb (GPR17 [2]): < 3.16 nM
Compound: N#Cc1ccc(NS(=O)(=O)c2c[nH]c3cc(Cl)ccc23)c(F)c1 [Compound I-116, 6-chloro-N-(4-cyano-2-fluorophenyl)-1H-indole-3-sulfonamide]
- myelin sheath length (myelinated fibers by fiber length) [3]: induced longer myelin sheaths

Compound: NCC(=O)CCC(=O)O [Compound 5-ALA, 5 amino levulinic acid]
- amounts needed in the GPR17 assays (reported affinity quite low) (GPR17 [4]): three digit micromolar range

Compound: CC(C)(O)c1ccccc1CC[C@@H](SCC1(CC(=O)O)CC1)c1cccc(/C=C/c2ccc3ccc(Cl)cc3n2)c1 [montekulast, Montelukast]
- protein binding [5]: high protein binding
- brain penetration [6]: poor brain penetration

Compound: NCc1[nH]cc(CCC(=O)O)c1CC(=O)O [PBG, porphobilinogen]
- amounts needed in the GPR17 assays (reported affinity quite low) (GPR17 [4]): mM range
- chemical stability [7]: rapidly decomposes after exposure to air and light

Compound: O=S(=O)(Nc1cc(F)c(Br)cc1F)c1c[nH]c2nc(Cl)ccc12 [Compound I-228, N-(4-bromo-2,5-difluorophenyl)-6-chloro-1H-pyrrolo[2,3-b]pyridine-3-sulfonamide]
- reappearance of myelin-associated proteins (PLP levels in corpus callosum) [8]: accelerates the reappearance of the myelin-associated proteins

- IC50 (GPR17 [1]): > 31.6 nM
- Kb (GPR17 [2]): > 31.6 nM
Compound: O=S(=O)(Nc1ccc(F)cc1F)c1c[nH]c2cc(Cl)ccc12 [Compound I-1, 6-chloro-N-(2,4-difluorophenyl)-1H-indole-3-sulfonamide]
- brain concentrations versus plasma exposure [9]: displayed brain concentrations paralleling plasma exposure

Compound: O=C(Nc1cccc2c(=O)cc(-c3nnn[nH]3)oc12)c1ccc(OCCCCc2ccccc2)cc1 [pranlukast]
- protein binding [5]: high protein binding
- brain penetration [6]: poor brain penetration

Reference: US12071404B2, “Aza (indole)-, benzothiophene-, and benzofuran-3-sulfonamides” (UCB Pharma GmbH, priority 2016, dated 2024)
